According to patent US20160022636A1, “PHYSIOLOGICAL LIGANDS FOR GPR139” (JANSSEN PHARMACEUTICA NV, priority 2013, published 2016):
Values joined by “and” are separate entries in the source; they are usually repeats but may differ in a detail not shown here. Identical values can stand only once.

Experiments:
GO2Q alone = assay: GTPγS binding assay, control membranes from COS7 cells expressing GO2Q alone (Ct-GO2Q); format: biochemical; conditions: for Activation levels (GTPγS binding signal), Ct-GO2Q: 1 mM final concentration, single wells of triplicate, COS7 membranes with GO2Q alone (control panel); for activation of membranes from cells expressing GO2Q alone (in words): 1 mM, same assay
Excerpt: (§1) Human (A and B) or mouse (C and D) GPR139 were co-transfected with chimeric G-protein GO2Q into COS7 cells. Cell membranes from transfected cells were used in GTPγS binding studies using various ligands at different concentrations to stimulate GPR139. Membranes from COS7 cells transfected by GO2Q were used as the controls (E and F).
(§2) In order identify the ligands for GPR139 two improvements in the detection assay were made to allow for the ligands to be detected. First, we chose to use a GTPγS binding assay instead of using live cultured cells. The GTPγS binding assay is a cell free system that uses the cell membrane of the cell(s) of interest rather than the live cell(s). One advantage of this assay is that potential ligands present in the cell culture media are washed away when the cell membrane is prepared. This reduces the basal level of signal and increase the chance of detecting receptor ligands when assessing compounds that activate the receptor. Second, a GO2Q chimeric G-protein was created to be co-expressed with GPR139 in order to increase the signal-to-noise ratio in the GTPγS binding assay. Historically, the Gi, Go coupled GPCRs offer much greater signal-to-noise ratio in GTPγS binding studies. For Gs and Gq coupled GPCRs, although ligand-stimulated specific signals can be detected in a GTPγS binding assay, the signal-to-noise ratios are often very small. To address this a chimeric GO2-Gq chimeric G-protein, GO2Q, with the N-terminus from Go2 protein and the C-terminus from Gq protein.
(§3) To test for compounds that activate GPR139, different amino acids and their derivatives (Table 2) were tested as ligands in the GTPγS binding assay using cell membranes from COS7 cells co-expressing GPR139 and GO2Q. Cell membrane from COS7 cells expressing GO2Q alone or co-expressing other GPCRs were also tested in GTPγS binding assay in parallel as controls. Each compound was tested in triplicate.

mouse GPR139 = molecular target: T1, mouse GPR139 (Mus musculus, UniProt Q80UC8); assay: GTPγS binding dose response, COS7 membranes co-transfected with mouse GPR139 and GO2Q; format: biochemical; conditions: mouse GPR139, FIG. 2 C and D
T1 construct: expressed in transfected cells; host or cells: COS7
T1 sequence (Q80UC8 1-345): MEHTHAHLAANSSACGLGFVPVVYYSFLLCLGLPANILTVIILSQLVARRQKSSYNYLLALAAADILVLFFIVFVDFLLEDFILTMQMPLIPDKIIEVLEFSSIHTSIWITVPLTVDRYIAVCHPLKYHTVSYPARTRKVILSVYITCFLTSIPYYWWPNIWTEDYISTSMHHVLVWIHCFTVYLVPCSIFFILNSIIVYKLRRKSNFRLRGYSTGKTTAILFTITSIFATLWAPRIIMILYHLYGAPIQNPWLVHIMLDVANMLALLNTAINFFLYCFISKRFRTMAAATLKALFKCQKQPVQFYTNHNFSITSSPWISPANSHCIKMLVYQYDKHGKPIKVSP
Excerpt: as §1, with “FIG. 2: Tryptophan, phenylalanine, and their derivatives activate GPR139. Human” for “Human”

GPR21 = molecular target: T2, GPR21 (Homo sapiens, UniProt Q99679); assay: GTPγS binding assay, membranes co-expressing GO2Q and GPR21; format: biochemical; conditions: data not shown
T2 construct: expressed in transfected cells; host or cells: COS7
T2 sequence (Q99679 whole entry, species assumed): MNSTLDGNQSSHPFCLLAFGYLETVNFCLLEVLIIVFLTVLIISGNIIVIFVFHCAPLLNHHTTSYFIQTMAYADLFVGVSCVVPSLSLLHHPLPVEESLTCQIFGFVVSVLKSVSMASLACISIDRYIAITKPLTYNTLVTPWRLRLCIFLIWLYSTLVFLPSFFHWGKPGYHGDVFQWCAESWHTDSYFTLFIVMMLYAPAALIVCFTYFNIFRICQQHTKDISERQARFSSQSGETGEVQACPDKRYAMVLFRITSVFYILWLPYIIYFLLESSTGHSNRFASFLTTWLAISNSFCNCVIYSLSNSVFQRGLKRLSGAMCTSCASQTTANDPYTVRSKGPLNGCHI
Description: as §3

GPR52 = molecular target: T3, GPR52 (Homo sapiens, UniProt Q9Y2T5); assay: GTPγS binding assay, membranes co-expressing GO2Q and GPR52; format: biochemical; conditions: data not shown
T3 construct: expressed in transfected cells; host or cells: COS7
T3 sequence (Q9Y2T5 whole entry, species assumed): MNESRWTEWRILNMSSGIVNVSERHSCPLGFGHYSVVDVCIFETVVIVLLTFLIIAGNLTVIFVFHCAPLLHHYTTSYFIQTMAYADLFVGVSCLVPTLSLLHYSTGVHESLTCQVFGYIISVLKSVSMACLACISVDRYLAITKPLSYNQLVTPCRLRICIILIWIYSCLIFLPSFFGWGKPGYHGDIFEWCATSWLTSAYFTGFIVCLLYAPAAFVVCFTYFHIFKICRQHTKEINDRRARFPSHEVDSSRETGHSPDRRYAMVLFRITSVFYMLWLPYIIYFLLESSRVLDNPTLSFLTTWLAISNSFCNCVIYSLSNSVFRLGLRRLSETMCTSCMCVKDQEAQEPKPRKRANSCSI
Description: as §3

GPCR119 = assay: GTPγS binding assay, membranes co-expressing GO2Q and GPCR119; format: biochemical; conditions: data not shown
Description: as §3

GPCR132 = assay: GTPγS binding assay, membranes co-expressing GO2Q and GPCR132; format: biochemical; conditions: data not shown
Description: as §3

GPCR134 = assay: GTPγS binding assay, membranes co-expressing GO2Q and GPCR134; format: biochemical; conditions: data not shown
Description: as §3

GPR182 = molecular target: T4, GPR182 (Homo sapiens, UniProt O15218); assay: GTPγS binding assay, membranes co-expressing GO2Q and GPR182; format: biochemical; conditions: data not shown
T4 construct: expressed in transfected cells; host or cells: COS7
T4 sequence (O15218 whole entry, species assumed): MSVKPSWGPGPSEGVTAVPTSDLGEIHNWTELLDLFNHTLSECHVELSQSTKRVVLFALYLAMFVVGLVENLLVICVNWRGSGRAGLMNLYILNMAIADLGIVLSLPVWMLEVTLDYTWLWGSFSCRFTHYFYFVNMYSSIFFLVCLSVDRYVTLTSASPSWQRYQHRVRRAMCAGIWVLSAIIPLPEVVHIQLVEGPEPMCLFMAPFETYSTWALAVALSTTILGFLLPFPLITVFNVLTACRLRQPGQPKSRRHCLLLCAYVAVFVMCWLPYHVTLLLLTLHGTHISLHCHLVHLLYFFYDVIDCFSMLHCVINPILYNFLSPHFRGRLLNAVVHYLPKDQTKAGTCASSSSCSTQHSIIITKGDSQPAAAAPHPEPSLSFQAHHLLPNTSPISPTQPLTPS
Description: as §3

GPR139 [1] = molecular target: T5, GPR139 (Homo sapiens, UniProt Q6DWJ6); assay: GTPγS binding assay, membranes from COS7 cells co-expressing GPR139 and GO2Q, single concentration screen; format: biochemical; set-up: expressed in transfected cells; host or cells: COS7; conditions: for activation of GPR139 in GTPγS binding assay (in words): 1 mM; for Activation levels of GPR139 (GTPγS binding signal), GPR139-GO2Q: 1 mM final concentration, single wells of triplicate, COS7 membranes co-expressing GPR139 and GO2Q
T5 sequence (Q6DWJ6 1-353): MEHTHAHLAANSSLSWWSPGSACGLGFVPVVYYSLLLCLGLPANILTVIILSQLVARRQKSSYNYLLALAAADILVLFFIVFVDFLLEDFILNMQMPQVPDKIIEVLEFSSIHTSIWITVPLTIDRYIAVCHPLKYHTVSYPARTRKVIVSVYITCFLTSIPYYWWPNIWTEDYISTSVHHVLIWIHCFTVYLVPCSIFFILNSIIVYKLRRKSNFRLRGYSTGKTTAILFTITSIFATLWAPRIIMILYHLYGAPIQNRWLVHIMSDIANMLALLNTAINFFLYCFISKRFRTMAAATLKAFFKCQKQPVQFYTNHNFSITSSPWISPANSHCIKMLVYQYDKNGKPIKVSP
Description: as §2, §3

GPR139 [2] = molecular target: T5, GPR139; assay: GTPγS binding dose response, COS7 membranes co-transfected with human GPR139 and GO2Q; format: biochemical; set-up: expressed in transfected cells; host or cells: COS7; conditions: human GPR139, FIG. 2 A and B
Excerpt: as §1, with “FIG. 2: Tryptophan, phenylalanine, and their derivatives activate GPR139. Human” for “Human”

GPR139 [3] = molecular target: T5, GPR139; assay: calcium mobilization assay (FLIPR), GPR139 transiently expressed in HEK293 cells; format: cell-based; set-up: expressed in transfected cells; host or cells: HEK293; conditions: HEK293 cells transiently expressing human GPR139, FIG. 3
Excerpt: For these experiments human GPR139 was transiently expressed in HEK293 cells and calcium mobilization was stimulated using L-Trp, L-Phe or their derivatives.

Compound | Activation levels (GTPγS binding signal), Ct-GO2Q (GO2Q alone) | activation of membranes from cells expressing GO2Q alone (in words) (GO2Q alone) | dose response activation of GPR139 (in words) (mouse GPR139) | activation of membranes co-expressing GO2Q and GPR21 (in words) (GPR21) | activation of membranes co-expressing GO2Q and GPR52 (in words) (GPR52) | activation of membranes co-expressing GO2Q and GPCR119 (in words) (GPCR119) | activation of membranes co-expressing GO2Q and GPCR132 (in words) (GPCR132) | activation of membranes co-expressing GO2Q and GPCR134 (in words) (GPCR134) | activation of membranes co-expressing GO2Q and GPR182 (in words) (GPR182) | activation of GPR139 in GTPγS binding assay (in words) (GPR139 [1]) | Activation levels of GPR139 (GTPγS binding signal), GPR139-GO2Q (GPR139 [1]) | dose response activation of GPR139 (in words) (GPR139 [2]) | stimulation of calcium mobilization (in words) (GPR139 [3])
N[C@@H](Cc1c[nH]c2ccccc12)C(=O)O [L-Trp, L-tryptophan] | 2172 and 2234 and 2272 | did not activate | specifically activate GPR139 in a dose-responsive manner | did not activate | did not activate | did not activate | did not activate | did not activate | did not activate | able to activate GPR139 | 8141 and 9121 and 9149 | specifically activate GPR139 in a dose-responsive manner | specifically stimulate calcium mobilization
N[C@@H](Cc1ccccc1)C(=O)O [L-Phe, L-phenylalanine] | 2190 and 2215 and 2345 | did not activate | specifically activate GPR139 in a dose-responsive manner | did not activate | did not activate | did not activate | did not activate | did not activate | did not activate | able to activate GPR139 | 8697 and 6925 and 8417 | specifically activate GPR139 in a dose-responsive manner | specifically stimulate calcium mobilization
